# Laboratory results taken from US9056865B2, “Pyridine-2-derivatives as smoothened receptor modulators” (Pfizer Inc., priority 2010, dated 2015).
# Experiments:
# human Smo = human Smo (Homo sapiens (Human), UniProt Q99835); assay: Smo radioligand competition binding assay; conditions: for inhibition at 0.05 µM: 0.05 μM test compound, read-out: Smo % inh. @ 0.05 μM
# Experimental: Smo Radioligand Competition Binding Assay
# Membranes were prepared from a stable cell line created in HEK293FlpIn-TetR cells (Invitrogen) using Flp recombinase-mediated insertion of the pSecTag-FRT/V5-His vector containing a cDNA encoding amino acids […] of human Smo fused to the murine Igk leader sequence to produce a cell surface expressed Smo 181-781 protein. Hygromycin-resistant clones were obtained and stained for LacZ expression (no expression indicates a correct knock-in of fusion cDNA). LacZ-negative cells were analyzed for binding tritiated Smo antagonists. For membrane preparation, the HEK293 cells expressing Smo 181-781 were grown to 90% confluence in nine to fifteen 245 mm×245 mm×22 mm dishes, washed with Dulbecco's PBS (15 mL per dish) and harvested via scraping in 10 mL of DPBS. The cells were collected and centrifuged at 1500 rpm (400×g) for 10 min at 4° C. The cell pellets were re-suspended in 40 mL of cold DPBS and washed by centrifugation at 2300 rpm (950×g max) for 10 minutes at 4° C. The supernatant was aspirated and the cell pellet was snap frozen in a methanol/dry ice bath and stored at −70° C. For membrane preparation, 15 mL of Membrane Preparation Buffer (50 mM Tris-HCl pH 7.5, 250 mM sucrose with Roche complete protease cocktail tablets) was added to the tube containing the cell pellet, then cells are rapidly thawed, and homogenized using an Ultra-Turrax T8 (IKA Labortechnik) set on “6” for 15 seconds for 5-6 times in icy water bath. This homogenate was diluted up to 50 mL using Membrane Preparation Buffer and centrifuged at 35,000 rpm in a Beckman Ti45 rotor (140,000×g) for 35 minutes at 4° C. followed by aspiration of the supernatant and re-suspension of the pellet in 5 mL of Assay Buffer (50 mM Tris-HCl pH 7.5, 100 mM NaCl, 25 mM MgCl2, 1 mM EDTA, and 0.1% protease free bovine serum albumin). The re-suspended pellet was then homogenized in a glass tissue grinder. The re-suspended membranes were aliquoted (0.5 mL aliquots), snap frozen and stored at −70° C. Total protein in the membrane preparation was determined using the Pierce BCA protein assay (Pierce Chemical).
# For the binding competition assay, 100 μL of Assay Buffer was added to all the wells of a 96 well GF/B filter plate (Millipore MultiScreen-HTS-FB cat# MSFBN6B50) for 10 minutes to pre-wet the filter prior to evacuation of the buffer (8 inches Hg for 8 seconds). To the pre-wet wells is added: 20 μL of Assay Buffer, 10 μL diluted test agent, 20 μL of a tritiated Smo antagonist (15 nM stock solution), and 50 μL of membrane preparation (40 μg total protein per well). The plates are sealed and mixed at room temperature for 5 min, incubated at room temperature for 2 hours, then washed 5 times with 100 μL/each of wash buffer and vacuum dried for 8 seconds at 8 inches Hg. The plate is then dried for one hour in a 60° C. oven prior to the addition of 45 μL of Microscint 20 (Packard, #6013621) to each well and incubation at RT for 30 minutes to 1 hour. The plate is counted in a TopCount scintillation counter (Perkin Elmer).
# Data analysis uses Excel for % Inhibition and Graphpad Prism for IC50 calculation. Total binding (TB, in the absence of inhibitors)=average of tritiated Smo antagonist 3 nM+Smo membrane (40 μg/wells (approx 5000-7000 CPM)). Non-specific binding (NSB)=average of tritiated Smo antagonist (3 nM)+cold Smo antagonist (30 μM)+Smo membrane (approx 600-1200 CPM). Specific binding (SB)=(total binding−non-specific binding). % Inhibition=[1−(compound Specific binding/control Specific binding)]×100%. IC50 is calculated by fitting the data to the four parameter sigmoidal dose-response curve (variable slope) Y=Bottom+(Top-Bottom)/(1+10^((LogEC50−X)*HillSlope)). X is the logarithm of the inhibitor concentration. Y is the response; Y starts at Bottom and goes to Top with a sigmoid shape.
# Gli-Luc/MEF cells = assay: Gli-Luc/MEF assay; assay type: cell-based, mouse; conditions: Mus musculus, MEF; Shh-stimulated luciferase, 48 hours
# Experimental: The Gli-Luc/MEF cells obtained from Gli-Luc transgenic mice contain a luciferase reporter gene under the control of the Gli response element. Luciferase activity stimulated with Sonic hedgehog ligand was inhibited by Smo inhibitors, and IC50 was subsequently calculated.
# Plates were incubated at 37° C. and 5% CO2 overnight. On day two, cells were dosed with test compounds at a final concentration ranging from 3 μM to 50 μM at a 3-time series dilution. Immediately after dosing cells with compounds, recombinant mouse sonic hedgehog (Shh, R&D Systems 464-SH) was added to a final concentration of 2 μg/mL. The cells were incubated with compounds and Shh for 48 hours at 37° C. and 5% CO2. Luciferase assays were conducted on Day 4 using the Bright-Glo Luciferase assay system (Promega E2620) according to Promega's protocol. Briefly, Bright-Glo luciferase reagent was made up and 25 μL were added to each well of the 384-well plate containing media. Plates were kept at room temperature for 5 minutes, and then read on an Envision Luminescence plate reader (Perkin-Elmer). IC50 of the inhibition was calculated by using GraphPad Prism.
# Chain of human Smo (Q99835 181-787): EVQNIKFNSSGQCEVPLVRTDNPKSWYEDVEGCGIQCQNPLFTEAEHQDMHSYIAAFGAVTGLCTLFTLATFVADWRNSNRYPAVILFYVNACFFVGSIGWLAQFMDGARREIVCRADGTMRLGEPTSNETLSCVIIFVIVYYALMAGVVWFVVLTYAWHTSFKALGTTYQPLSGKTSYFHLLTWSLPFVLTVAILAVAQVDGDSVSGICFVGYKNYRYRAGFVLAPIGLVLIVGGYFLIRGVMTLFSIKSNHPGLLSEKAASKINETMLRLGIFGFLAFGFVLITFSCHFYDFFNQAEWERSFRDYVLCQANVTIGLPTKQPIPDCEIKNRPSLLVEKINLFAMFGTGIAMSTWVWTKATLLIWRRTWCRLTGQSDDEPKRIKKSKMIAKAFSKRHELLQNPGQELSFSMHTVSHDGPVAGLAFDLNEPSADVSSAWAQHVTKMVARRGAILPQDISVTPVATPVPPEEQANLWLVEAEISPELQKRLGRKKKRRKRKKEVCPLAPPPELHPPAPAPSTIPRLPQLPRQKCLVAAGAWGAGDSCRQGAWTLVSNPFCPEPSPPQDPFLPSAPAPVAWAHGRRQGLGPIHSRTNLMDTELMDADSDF
smiles,measurement,setting,value
"Cc1cccnc1-c1cc(N2CCN(c3ccc(C#N)cn3)CC2)ncc1Cl [Example A-19, 6-[4-(5′-chloro-3-methyl-2,4′-bipyridin-2′-yl)piperazin-1-yl]nicatinonitrile]",IC50,human Smo,0.0375 µM
same,inhibition at 0.05 µM,human Smo,91.5%
same,IC50,Gli-Luc/MEF cells,0.0101 µM
"Cc1cccnc1-c1cc(N2CCC3(CC2)CN(C)C(=O)O3)ncc1Cl [Example A-20, 8-(5′-chloro-3-methyl-2,4′-bipyridin-2′-yl)-3-methyl-1-oxa-3,8-diazaspiro[4.5]decan-2-one]",IC50,human Smo,0.407 µM
same,inhibition at 0.05 µM,human Smo,64.6%
same,IC50,Gli-Luc/MEF cells,0.109 µM
"Cc1cccnc1-c1cc(N2CCC3(CC2)CNC(=O)O3)ncc1Cl [Example A-21, 8-(5′-chloro-3-methyl-2,4′-bipyridin-2′-yl)-1-oxa-3,8-diazaspiro[4.5]decan-2-one]",IC50,human Smo,0.297 µM
same,inhibition at 0.05 µM,human Smo,65.9%
same,IC50,Gli-Luc/MEF cells,0.114 µM
"Cc1cccnc1-c1cc(N2CCN(S(C)(=O)=O)CC2)ncc1Cl [Example A-22, 5′-chloro-3-methyl-2′-[4-(methylsulfonyl)piperazin-1-yl]-2,4′-bipyridine]",IC50,human Smo,0.11 µM
same,inhibition at 0.05 µM,human Smo,81.5%
same,IC50,Gli-Luc/MEF cells,0.042 µM
"CC(=O)N1CCN(c2cc(-c3ncccc3C)c(Cl)cn2)CC1 [Example A-23, 2′-(4-acetylpiperazin-1-yl)-5′-chloro-3-methyl-2,4′-bipyridine]",IC50,human Smo,0.417 µM
same,inhibition at 0.05 µM,human Smo,59.5%
same,IC50,Gli-Luc/MEF cells,0.194 µM
"COC(=O)N1CCN(c2cc(-c3ncccc3C)c(Cl)cn2)CC1 [Example A-24, methyl 4-(5′-chloro-3-methyl-2,4′-bipyridin-2′-yl)piperazine-1-carboxylate]",IC50,human Smo,0.243 µM
same,inhibition at 0.05 µM,human Smo,69.3%
same,IC50,Gli-Luc/MEF cells,0.126 µM
"Cc1cccnc1-c1cc(N2CCN(C(=O)CO)CC2)ncc1Cl [Example A-25, 2-[4-(5′-chloro-3-methyl-2,4′-bipyridin-2′-yl)piperazin-1-yl]-2-oxoethanol]",IC50,human Smo,0.239 µM
same,inhibition at 0.05 µM,human Smo,72.1%
same,IC50,Gli-Luc/MEF cells,0.197 µM
"CC(=O)N1CCN(c2ncc(Cl)c(-c3ncccc3C)n2)CC1 [Example A-26, 2-(4-acetylpiperazin-1-yl)-5-chloro-4-(3-methylpyridin-2-yl)pyrimidine]",IC50,human Smo,0.359 µM
same,inhibition at 0.05 µM,human Smo,69.9%
same,IC50,Gli-Luc/MEF cells,0.189 µM
"COCCC(=O)NC1CCN(c2cc(-c3ncccc3C)c(Cl)cn2)CC1 [Example A-27, N-[1-(5′-chloro-3-methyl-2,4′-bipyridin-2′-yl)piperidin-4-yl]-3-methoxypropanamide]",IC50,human Smo,0.107 µM
same,inhibition at 0.05 µM,human Smo,75.7%
same,IC50,Gli-Luc/MEF cells,0.0211 µM
"COCC(=O)N1CCN(c2cc(-c3ncccc3C)c(Cl)cn2)CC1 [Example A-28, 5′-chloro-2′-[4-(methoxyacetyl)piperazin-1-yl]-3-methyl-2,4′-bipyridine]",IC50,human Smo,0.212 µM
same,inhibition at 0.05 µM,human Smo,68.9%
same,IC50,Gli-Luc/MEF cells,0.146 µM
"COCCC(=O)N1CCN(c2cc(-c3ncccc3C)c(Cl)cn2)CC1 [Example A-29, 5′-chloro-2′-[4-(3-methoxypropanoyl)piperazin-1-yl]-3-methyl-2,4′-bipyridine]",IC50,human Smo,0.0523 µM
same,inhibition at 0.05 µM,human Smo,89.3%
same,IC50,Gli-Luc/MEF cells,0.0425 µM
"Cc1cccnc1-c1nc(N2CCC(O)CC2)ncc1Cl [Example A-30, 1-[5-chloro-4-(3-methylpyridin-2-yl)pyrimidin-2-yl]piperidin-4-ol]",IC50,human Smo,0.16 µM
same,inhibition at 0.05 µM,human Smo,77.7%
same,IC50,Gli-Luc/MEF cells,0.246 µM
"Cc1cccnc1-c1cc(N2CCC(NC(=O)CN(C)C)CC2)ncc1Cl [Example A-31, N-(1-(5′-chloro-3-methyl-[2,4′-bipyridin]-2′-yl)piperidin-4-yl)-2-(dimethylamino)acetamide]",IC50,human Smo,0.0434 µM
same,inhibition at 0.05 µM,human Smo,89.2%
same,IC50,Gli-Luc/MEF cells,0.0208 µM
"COC(=O)NC1CCN(c2cc(-c3ncccc3C)c(Cl)cn2)CC1 [Example A-32, methyl [1-(5′-chloro-3-methyl-2,4′-bipyridin-2′-yl)piperidin-4-yl]carbamate]",IC50,human Smo,0.0779 µM
same,inhibition at 0.05 µM,human Smo,86.6%
same,IC50,Gli-Luc/MEF cells,0.0274 µM
"Cc1cccnc1-c1nc(N2CCN(S(C)(=O)=O)CC2)ncc1Cl [Example A-33, 5-chloro-4-(3-methylpyridin-2-yl)-2-[4-(methylsulfonyl)piperazin-1-yl]pyrimidine]",IC50,human Smo,0.172 µM
same,inhibition at 0.05 µM,human Smo,76.9%
same,IC50,Gli-Luc/MEF cells,0.113 µM
"Cc1cccnc1-c1nc(N2CCC(NS(C)(=O)=O)CC2)ncc1Cl [Example A-34, N-{1-[5-chloro-4-(3-methylpyridin-2-yl)pyrimidin-2-yl]piperidin-4-yl}methanesulfonamide]",IC50,human Smo,0.0244 µM
same,inhibition at 0.05 µM,human Smo,94.8%
same,IC50,Gli-Luc/MEF cells,0.0209 µM
"CC(=O)NC1CCN(c2cc(-c3ncccc3C)c(Cl)cn2)CC1 [Example A-35, N-[1-(5′-chloro-3-methyl-2,4′-bipyridin-2′-yl)piperidin-4-yl]acetamide]",IC50,human Smo,0.199 µM
same,inhibition at 0.05 µM,human Smo,70.6%
same,IC50,Gli-Luc/MEF cells,0.0677 µM
"COC(=O)N1CCN(c2ncc(Cl)c(-c3ncccc3C)n2)CC1 [Example A-36, methyl 4-[5-chloro-4-(3-methylpyridin-2-yl)pyrimidin-2-yl]piperazine-1-carboxylate]",IC50,human Smo,0.246 µM
same,inhibition at 0.05 µM,human Smo,72.7%
same,IC50,Gli-Luc/MEF cells,0.109 µM
"COCCOCC1CCN(c2cc(-c3ncccc3C)c(Cl)cn2)CC1 [Example A-37, 5′-chloro-2′-{4-[(2-methoxyethoxy)methyl]piperidin-1-yl}-3-methyl-2,4′-bipyridine]",IC50,human Smo,0.209 µM
same,inhibition at 0.05 µM,human Smo,71.6%
same,IC50,Gli-Luc/MEF cells,0.098 µM
"Cc1cccnc1-c1cc(N2CCC(OCC(C)C)CC2)ncc1Cl [Example A-38, 5′-chloro-2′-(4-isobutoxypiperidin-1-yl)-3-methyl-2,4′-bipyridine]",IC50,human Smo,0.164 µM
same,inhibition at 0.05 µM,human Smo,78.5%
same,IC50,Gli-Luc/MEF cells,0.0602 µM
"CCOC(=O)N1CCN(c2cc(-c3ncccc3C)c(Cl)cn2)CC1 [Example A-39, ethyl 4-(5′-chloro-3-methyl-2,4′-bipyridin-2′-yl)piperazine-1-carboxylate]",IC50,human Smo,0.109 µM
same,inhibition at 0.05 µM,human Smo,80.7%
same,IC50,Gli-Luc/MEF cells,0.0485 µM
"CCCNC(=O)COC1CCN(c2cc(-c3ncccc3C)c(Cl)cn2)CC1 [Example A-40, 2-{[1-(5′-chloro-3-methyl-2,4′-bipyridin-2′-yl)piperidin-4-yl]oxy}-N-propylacetamide]",IC50,human Smo,0.254 µM
same,inhibition at 0.05 µM,human Smo,70.2%
same,IC50,Gli-Luc/MEF cells,0.114 µM
"CCN(CC)C(=O)COC1CCN(c2cc(-c3ncccc3C)c(Cl)cn2)CC1 [Example A-41, 2-{[1-(5′-chloro-3-methyl-2,4′-bipyridin-2′-yl)piperidin-4-yl]oxy}-N,N-diethylacetamide]",IC50,human Smo,0.131 µM
same,inhibition at 0.05 µM,human Smo,82.3%
same,IC50,Gli-Luc/MEF cells,0.0285 µM
